The text below walks through data of patent publication US11360080B2, “AhR-ROR-γt complex as a biomarker and therapeutic target for autoimmune disease and IL-17A-associated disease” (NATIONAL HEALTH RESEARCH INSTITUTES, priority 2018, dated 2022).

Counter-ions that a name gives are not always drawn.

In assay [1] the test system is EAE in wild-type mice. The experiment in a line: Experimental autoimmune encephalomyelitis (EAE) induction in wild-type mice. It is filed as in vivo, mouse. Conditions: C1 0.556 nmole/g, C2 0.085 nmole/g; for serum IL-17A levels in EAE: day 16. The source says: (A to C) Effect of the GLK inhibitor C1 (verteporfin) administration (0.556 nmole/g every 3 days for 30 days) on serum IL-17A and autoantibodies in Lck-GLK Tg mice. (B) ELISA of indicated serum cytokines in Lck-GLK Tg mice treated with C1 (verteporfin) or PBS. (C) ELISA of serum autoantibodies in Lck-GLK Tg mice treated with C1 (verteporfin) or PBS. Means±SEM are shown. (D) Experimental autoimmune encephalomyelitis (EAE) induction in wild-type mice treated with PBS, or the GLK inhibitor C1 (verteporfin) and C2. Clinical scores are presented on a scale of 1 to 5 (left panel). ELISA of IL-17A in the sera from MOG-immunized mice at day 16 (right panel). (E) Collagen-induced arthritis (CIA) induction in wild-type mice treated with the GLK inhibitor C1 (verteporfin) or PBS. Clinical scores are presented on a scale of 1 to 16 (left panel). ELISA of IL-17A in the sera from collagen-immunized mice at day 28. Means±SEM are shown. *, P value<0.05; **, P value<0.01; ***, P value<0.001 (two-tailed Student's […]). C1 denotes verteporfin; C2 denotes alexidine dihydrochloride.
Moreover, overproduction of autoantibodies in Lck-GLK Tg mice were also abolished by C1 (verteporfin) treatment (FIG. 10C). […] To further verify that the GLK inhibitors also works in IL-17A-mediated animal models, we challenged wild-type mice with C1 (verteporfin) or C2 (alexidine dihydrochloride) during EAE and CIA induction.

Assay [2] addresses T1, GLK kinase domain (Homo sapiens, UniProt Q8IVH8).
T1 construct: recombinant proteins of the GLK kinase-domain (1 μg) were incubated with recombinant proteins of kinase-dead PKCθ
T1 sequence (Q8IVH8 16-273 limits assumed): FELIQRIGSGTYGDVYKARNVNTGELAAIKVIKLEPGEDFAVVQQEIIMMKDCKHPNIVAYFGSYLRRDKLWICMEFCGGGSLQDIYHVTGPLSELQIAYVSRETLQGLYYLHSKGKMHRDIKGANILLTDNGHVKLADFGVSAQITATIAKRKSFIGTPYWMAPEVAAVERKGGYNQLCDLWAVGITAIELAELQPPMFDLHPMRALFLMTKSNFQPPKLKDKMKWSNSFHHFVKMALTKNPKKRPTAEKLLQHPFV
Kind of assay: In vitro GLK kinase assay (ADP-GLO) with kinase-dead PKCθ (K409W) as substrate. It is filed as biochemical. To be noted: screening of 101,200 compounds. As for the experimental part: (A) Luciferase activity of NF-κB-driven reporter assays in stable GLK-transfected CHO-K1 cells that were treated with or without the GLK inhibitor C1 (verteporfin) under the indicated concentration. The fold changes are presented relative to the value of vector control. (B) Recombinant proteins of GLK kinase domain plus recombinant proteins of GST-tagged kinase-dead PKCθ (K409W) were subjected to in vitro kinase assays in the presence or absence of the GLK inhibitor C1 (verteporfin). Means±SD of are shown. *, P value<0.05; **, P value<0.01 (two-tailed Student's t-test). (C) The AhR-RORγt complex was inhibited by the GLK inhibitor. Confocal microscopy of proximity ligation assays (PLA) for the interaction between AhR and either RORγt or phospho-RORγt (S489) in peripheral blood T cells treated with C1 (verteporfin) (5 μM) for 30 min. The T cells were freshly isolated from 4 SLE patients and 1 RA patients. C1 denotes verteporfin; C2 denotes alexidine dihydrochloride. (D) Quantification of the PLA signals of (C). (E) FRET assays of HEK293T cells co-transfected with CFP-AhR, YFP-RORγt, and IKKβ plasmids.
GLK kinase activity was determined by measuring the rate of ADP production in the in vitro kinase reaction using ADP-GLO™ Kinase Assay kit. For the kinase reaction, recombinant proteins of the GLK kinase-domain (1 μg) were incubated with recombinant proteins of kinase-dead PKCθ (K409W; 0.15 μg) plus ATP (0.1 mM) or myelin basic protein (MBP) plus ATP (0.1 mM) in kinase buffer (40 mM Tris-HCl, pH7.5.20 mM MgCl2, 0.1 mg/ml BSA, 10 mM DTT and 0.1 mM Na3VO4) for 30 min at room temperature.
Cell-based high-throughput screening was conducted against a representative library of 100,000 molecules at ˜10 μM. CHO-GLK-Luc cells expressing GLK and NF-κB-luciferase reporter were used. The reaction volume was 5 μl (500 cells) per well in 1,536-well plates. There was no positive control. This high-throughput screening campaign was successful with a determined Z′ factor of 0.57˜0.60. […]
Background: ADP-Glo turns the ADP formed in a reaction into a luminescent signal.

The subject of assay [3] is human glioma U87 cells. Kind of assay: Transwell migration assay. In kind it is cell-based. Conditions: C1 2 uM or 5 uM; C2 2 uM or uM. As for the experimental part:
(§1) Transwell migration assays of human glioma U87 cells, human pancreatic cancer Panc-1 cells, mouse lung cancer LL2 cells, or human hepatoma Huh-7 cells treated with the GLK inhibitor C1 (verteporfin) (a; 2 uM or 5 uM) or C2 (alexidine dihydrochloride) (b; 2 uM or uM). C1 denotes verteporfin; C2 denotes alexidine dihydrochloride.
(§2) For primary cell migration assays, 2×10^5 cells in […] of IMDM with 10% FBS were seeded into the upper chamber of transwells (8 μm pore size, Corning), and the lower chamber was loaded with […] of IMDM with 20% FBS. For cancer cell migration assays, 5×10^4 cells in 200 μl of RPMI 1640 with 10% FBS were seeded into the upper chamber of transwells (8 μm pore size, Corning), and the lower chamber was loaded with […] of RPMI 1640 with 10% FBS. After incubation at 37° C. for 24 h, cells migrating to the lower chamber were imaged and counted by bright-field microscopy following fixation with absolute methanol and staining with 1% crystal violet solution.

The subject of assay [4] is mouse lung cancer LL2 cells. Kind of assay: Transwell migration assay. In kind it is cell-based. Conditions: C1 2 uM or 5 uM; C2 2 uM or uM. Here is the method:
as §1, §2

In assay [5] the test system is human pancreatic cancer Panc-1 cells. The experiment in a line: Transwell migration assay. To be noted: C1 2 uM or 5 uM; C2 2 uM or uM. In kind it is cell-based. As for the experimental part:
as §1, §2

Assay [6] concerns human hepatoma Huh-7 cells. Kind of assay: Transwell migration assay. It is filed as cell-based. To be noted: C1 2 uM or 5 uM; C2 2 uM or uM. Here is the method: as §1, §2

For `C=Cc1c(C)c2cc3nc(cc4[nH]c(cc5nc(cc1[nH]2)C(C)=C5CCC(=O)O)c(CCC(=O)OC)c4C)[C@@]1(C)C3=CC=C(C(=O)OC)[C@H]1C(=O)OC` [C1, verteporfin], in assay [1], the “disease severity (clinical score) in EAE” value is recorded as “significantly suppressed” and the “serum IL-17A levels in EAE” value was “significantly suppressed”. The “GLK kinase activity in vitro” value in assay [2] is given as “efficiently inhibited”. Further, in assay [2] (listed as verteporfin), the “GLK kinase activity in vitro” value was “most effective inhibitor”. Further, the “migration of glioma cells” value in assay [3] is “inhibited”. Further, the “migration of lung cancer cells” value in assay [4] is listed as “inhibited”. The “migration of pancreatic cancer cells” value in assay [5] is “inhibited”. Moreover, the “migration of hepatoma cells” value in assay [6] was “inhibited”.
Turning to `CCCCC(CC)CNC(=N)NC(=N)NCCCCCCNC(=N)NC(=N)NCC(CC)CCCC` (stereo not drawn) [C2, alexidine dihydrochloride], in assay [1], the “disease severity (clinical score) in EAE” value is given as “significantly suppressed” and the “serum IL-17A levels in EAE” value is recorded as “significantly suppressed”. Further, the “GLK kinase activity in vitro” value in assay [2] is “efficiently inhibited”. In assay [3], the “migration of glioma cells” value is listed as “inhibited”. Also, in assay [4], the “migration of lung cancer cells” value was “inhibited”. For the same compound, the “migration of pancreatic cancer cells” value in assay [5] is reported as “inhibited”. In addition, in assay [6], the “migration of hepatoma cells” value is “inhibited”.
